Tests used:
Format in all cases: binding
403 non-mutant kinases = assay: KINOMEscan panel selectivity (S-Score, number of kinases engaged); conditions: 10 μM; for S-Score (35): non-mutant kinases below 35% control divided by kinases examined
Procedure: Selectivity profiling of compound 3 among a panel of kinases was performed with KINOMEscan® as set forth below. The KINOMEscan® screening platform employs an active site-directed competition binding assay to quantitatively measure interactions between a test compound, e.g., compound 3, and more than 450 kinases and disease-relevant mutant variants.
Screening of compound 3 was conducted at a concentration of 10 μM by Eurofins DiscoverX. Activity is measured as the ability of compound 3 to displace the kinase from a solid support relative to a negative control (i.e., DMSO). The output is % control.
The selectivity score (S-Score) refers to the number of non-mutant kinases that display a % control below a specific number, divided by the number of non-mutant kinases that were examined.
Selectivity profiling of compound 5 among a panel of kinases was performed with KINOMEscan® as set forth below.

[1] = target: ABL1(F317I)-nonphosphorylated (Homo sapiens (Human), UniProt P00519, F317I); assay: KINOMEscan; conditions: 10000 nM, read-out: Percent Control
ADCK4 = ADCK4 (Homo sapiens (Human), UniProt Q96D53); assay: KINOMEscan; conditions: ADCK4, 10000 nM; read-out: Percent Control
BMPR1B = BMPR1B (Homo sapiens (Human), UniProt O00238); assay: KINOMEscan; conditions: 10000 nM, read-out: Percent Control
BRAF = BRAF (Homo sapiens (Human), UniProt P15056); assay: KINOMEscan; conditions: 10000 nM, read-out: Percent Control
CAMK2D = CAMK2D (Homo sapiens (Human), UniProt Q13557); assay: KINOMEscan; conditions: 10000 nM, read-out: Percent Control
CAMK2G = CAMK2G (Homo sapiens (Human), UniProt Q13555); assay: KINOMEscan; conditions: 10000 nM, read-out: Percent Control
CDK2 = CDK2 (Homo sapiens (Human), UniProt P24941); assay: KINOMEscan; conditions: CDK2, 10000 nM; read-out: Percent Control
CHEK1 = CHEK1 (Homo sapiens (Human), UniProt O14757); assay: KINOMEscan; conditions: CHEK1, 10000 nM; read-out: Percent Control
CSF1R = CSF1R (Homo sapiens (Human), UniProt P07333); assay: KINOMEscan; conditions: 10000 nM, read-out: Percent Control
DAPK2 = DAPK2 (Homo sapiens (Human), UniProt Q9UIK4); assay: KINOMEscan; conditions: DAPK2, 10000 nM; read-out: Percent Control
EPHB2 = EPHB2 (Homo sapiens (Human), UniProt P29323); assay: KINOMEscan; conditions: EPHB2, 10000 nM; read-out: Percent Control
EPHB6 = EPHB6 (Homo sapiens (Human), UniProt O15197); assay: KINOMEscan; conditions: EPHB6, 10000 nM; read-out: Percent Control
ERBB3 = ERBB3 (Homo sapiens (Human), UniProt P21860); assay: KINOMEscan; conditions: ERBB3, 10000 nM; read-out: Percent Control
FGFR2 = FGFR2 (Homo sapiens (Human), UniProt P21802); assay: KINOMEscan; conditions: FGFR2, 10000 nM; read-out: Percent Control
FLT3(ITD) = assay: KINOMEscan; conditions: 10000 nM
FLT3(ITD, D835V) = assay: KINOMEscan; conditions: 10000 nM
INSR = INSR (Homo sapiens (Human), UniProt P06213); assay: KINOMEscan; conditions: 10000 nM, read-out: Percent Control
[2] = target: JAK1(JH1domain-catalytic) (Homo sapiens (Human), UniProt P23458); assay: KINOMEscan; conditions: 10000 nM, read-out: Percent Control
MLK3 = MLK3 (Homo sapiens (Human), UniProt Q16584); assay: KINOMEscan; conditions: MLK3, 10000 nM; read-out: Percent Control
MST4 = MST4 (Homo sapiens (Human), UniProt Q9P289); assay: KINOMEscan; conditions: MST4, 10000 nM; read-out: Percent Control
MYO3B = MYO3B (Homo sapiens (Human), UniProt Q8WXR4); assay: KINOMEscan; conditions: 10000 nM, read-out: Percent Control
NLK = NLK (Homo sapiens (Human), UniProt Q9UBE8); assay: KINOMEscan; conditions: 10000 nM, read-out: Percent Control
p38-gamma = p38-gamma (Homo sapiens (Human), UniProt P53778); assay: KINOMEscan; conditions: 10000 nM, read-out: Percent Control
PFTK1 = PFTK1 (Homo sapiens (Human), UniProt O94921); assay: KINOMEscan; conditions: PFTK1, 10000 nM; read-out: Percent Control
PIP5K1A = PIP5K1A (Homo sapiens (Human), UniProt Q99755); assay: KINOMEscan; conditions: 10000 nM, read-out: Percent Control
PKMYT1 = PKMYT1 (Homo sapiens (Human), UniProt Q99640); assay: KINOMEscan; conditions: PKMYT1, 10000 nM; read-out: Percent Control
PKN2 = PKN2 (Homo sapiens (Human), UniProt Q16513); assay: KINOMEscan; conditions: PKN2, 10000 nM; read-out: Percent Control
PRKCD = PRKCD (Homo sapiens (Human), UniProt Q05655); assay: KINOMEscan; conditions: 10000 nM, read-out: Percent Control
RET(M918T) = RET(M918T) (Homo sapiens (Human), UniProt P07949, M918T); assay: KINOMEscan; conditions: 10000 nM, read-out: Percent Control
TAOK3 = TAOK3 (Homo sapiens (Human), UniProt Q9H2K8); assay: KINOMEscan; conditions: TAOK3, 10000 nM; read-out: Percent Control
YSK4 = YSK4 (Homo sapiens (Human), UniProt Q56UN5); assay: KINOMEscan; conditions: YSK4, 10000 nM; read-out: Percent Control

Chain of CAMK2G (Q13555 whole entry): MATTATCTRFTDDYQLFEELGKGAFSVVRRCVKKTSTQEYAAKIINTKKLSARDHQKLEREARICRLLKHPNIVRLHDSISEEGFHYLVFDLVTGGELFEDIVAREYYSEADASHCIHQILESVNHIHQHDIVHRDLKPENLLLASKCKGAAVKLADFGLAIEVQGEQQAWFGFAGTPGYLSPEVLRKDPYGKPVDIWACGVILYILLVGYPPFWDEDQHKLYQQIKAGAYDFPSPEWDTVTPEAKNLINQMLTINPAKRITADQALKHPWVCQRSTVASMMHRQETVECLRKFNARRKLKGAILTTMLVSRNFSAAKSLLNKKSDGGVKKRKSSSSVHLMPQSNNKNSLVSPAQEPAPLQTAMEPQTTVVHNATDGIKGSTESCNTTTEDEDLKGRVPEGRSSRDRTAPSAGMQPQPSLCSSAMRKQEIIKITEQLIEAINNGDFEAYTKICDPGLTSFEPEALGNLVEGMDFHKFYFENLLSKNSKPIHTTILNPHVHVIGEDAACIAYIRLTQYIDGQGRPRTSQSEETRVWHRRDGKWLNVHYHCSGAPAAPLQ
Chain of MST4 (Q9P289 whole entry): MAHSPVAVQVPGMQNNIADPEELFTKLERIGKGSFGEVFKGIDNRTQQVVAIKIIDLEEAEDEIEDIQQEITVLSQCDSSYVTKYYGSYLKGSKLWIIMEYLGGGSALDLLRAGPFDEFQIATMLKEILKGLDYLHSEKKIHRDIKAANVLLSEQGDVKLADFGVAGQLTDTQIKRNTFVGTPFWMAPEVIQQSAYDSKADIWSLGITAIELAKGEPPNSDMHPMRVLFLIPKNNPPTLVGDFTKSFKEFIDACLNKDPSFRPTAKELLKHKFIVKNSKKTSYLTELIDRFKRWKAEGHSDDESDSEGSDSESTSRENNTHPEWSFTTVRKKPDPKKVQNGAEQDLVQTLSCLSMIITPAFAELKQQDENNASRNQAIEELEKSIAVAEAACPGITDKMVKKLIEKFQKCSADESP
Chain of ERBB3 (P21860 20-1342): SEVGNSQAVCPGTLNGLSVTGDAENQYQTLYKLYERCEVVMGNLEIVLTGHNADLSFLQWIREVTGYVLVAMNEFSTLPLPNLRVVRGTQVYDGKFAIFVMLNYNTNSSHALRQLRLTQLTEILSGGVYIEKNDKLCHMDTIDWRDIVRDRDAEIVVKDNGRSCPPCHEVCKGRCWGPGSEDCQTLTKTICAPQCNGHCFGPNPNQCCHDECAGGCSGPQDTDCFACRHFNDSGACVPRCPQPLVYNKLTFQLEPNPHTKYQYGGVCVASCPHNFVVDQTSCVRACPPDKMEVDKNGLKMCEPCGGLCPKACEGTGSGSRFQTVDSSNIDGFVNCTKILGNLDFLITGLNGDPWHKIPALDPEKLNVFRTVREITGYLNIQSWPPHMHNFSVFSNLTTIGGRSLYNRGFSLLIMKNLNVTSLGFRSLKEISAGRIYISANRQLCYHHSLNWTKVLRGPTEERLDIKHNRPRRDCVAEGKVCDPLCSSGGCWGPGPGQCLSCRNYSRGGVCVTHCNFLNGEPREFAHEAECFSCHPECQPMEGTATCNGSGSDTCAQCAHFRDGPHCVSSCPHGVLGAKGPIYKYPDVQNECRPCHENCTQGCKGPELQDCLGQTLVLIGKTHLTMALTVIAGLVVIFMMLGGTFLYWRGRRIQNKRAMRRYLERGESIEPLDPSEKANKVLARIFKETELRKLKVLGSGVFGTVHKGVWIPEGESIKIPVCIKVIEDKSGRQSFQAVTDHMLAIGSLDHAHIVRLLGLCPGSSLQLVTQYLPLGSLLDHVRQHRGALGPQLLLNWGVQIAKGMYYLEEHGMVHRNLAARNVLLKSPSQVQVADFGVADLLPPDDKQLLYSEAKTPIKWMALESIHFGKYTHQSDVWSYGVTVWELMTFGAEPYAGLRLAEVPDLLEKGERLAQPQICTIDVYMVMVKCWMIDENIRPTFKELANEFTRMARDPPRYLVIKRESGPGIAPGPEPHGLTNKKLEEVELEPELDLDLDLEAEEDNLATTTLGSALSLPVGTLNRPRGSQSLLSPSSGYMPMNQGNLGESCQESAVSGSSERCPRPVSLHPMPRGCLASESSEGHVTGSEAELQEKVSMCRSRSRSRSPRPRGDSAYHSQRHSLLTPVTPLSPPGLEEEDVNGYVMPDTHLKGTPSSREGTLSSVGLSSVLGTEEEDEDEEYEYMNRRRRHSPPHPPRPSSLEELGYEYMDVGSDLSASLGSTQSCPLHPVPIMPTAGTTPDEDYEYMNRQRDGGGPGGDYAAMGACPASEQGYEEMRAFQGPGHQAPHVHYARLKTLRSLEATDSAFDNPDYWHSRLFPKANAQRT
Chain of BRAF (P15056 whole entry): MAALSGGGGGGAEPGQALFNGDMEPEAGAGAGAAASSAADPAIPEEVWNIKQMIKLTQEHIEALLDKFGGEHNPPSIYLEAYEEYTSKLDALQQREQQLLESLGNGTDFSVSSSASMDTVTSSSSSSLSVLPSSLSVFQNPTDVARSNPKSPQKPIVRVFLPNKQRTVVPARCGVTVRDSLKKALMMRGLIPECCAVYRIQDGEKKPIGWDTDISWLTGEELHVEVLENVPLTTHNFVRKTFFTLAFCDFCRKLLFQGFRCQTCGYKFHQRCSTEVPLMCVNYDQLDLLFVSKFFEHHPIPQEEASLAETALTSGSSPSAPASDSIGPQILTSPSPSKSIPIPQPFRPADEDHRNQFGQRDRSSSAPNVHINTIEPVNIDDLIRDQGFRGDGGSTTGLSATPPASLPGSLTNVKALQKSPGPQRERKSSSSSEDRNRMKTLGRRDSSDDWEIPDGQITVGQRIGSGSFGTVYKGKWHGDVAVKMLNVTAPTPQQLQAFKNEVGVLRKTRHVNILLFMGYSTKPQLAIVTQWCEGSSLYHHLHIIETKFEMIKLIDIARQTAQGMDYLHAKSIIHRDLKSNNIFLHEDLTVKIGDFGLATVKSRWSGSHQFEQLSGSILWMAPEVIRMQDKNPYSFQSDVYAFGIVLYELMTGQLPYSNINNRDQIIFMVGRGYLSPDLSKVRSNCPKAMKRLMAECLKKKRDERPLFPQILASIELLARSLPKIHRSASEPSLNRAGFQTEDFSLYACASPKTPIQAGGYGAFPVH
Chain of PKN2 (Q16513 whole entry): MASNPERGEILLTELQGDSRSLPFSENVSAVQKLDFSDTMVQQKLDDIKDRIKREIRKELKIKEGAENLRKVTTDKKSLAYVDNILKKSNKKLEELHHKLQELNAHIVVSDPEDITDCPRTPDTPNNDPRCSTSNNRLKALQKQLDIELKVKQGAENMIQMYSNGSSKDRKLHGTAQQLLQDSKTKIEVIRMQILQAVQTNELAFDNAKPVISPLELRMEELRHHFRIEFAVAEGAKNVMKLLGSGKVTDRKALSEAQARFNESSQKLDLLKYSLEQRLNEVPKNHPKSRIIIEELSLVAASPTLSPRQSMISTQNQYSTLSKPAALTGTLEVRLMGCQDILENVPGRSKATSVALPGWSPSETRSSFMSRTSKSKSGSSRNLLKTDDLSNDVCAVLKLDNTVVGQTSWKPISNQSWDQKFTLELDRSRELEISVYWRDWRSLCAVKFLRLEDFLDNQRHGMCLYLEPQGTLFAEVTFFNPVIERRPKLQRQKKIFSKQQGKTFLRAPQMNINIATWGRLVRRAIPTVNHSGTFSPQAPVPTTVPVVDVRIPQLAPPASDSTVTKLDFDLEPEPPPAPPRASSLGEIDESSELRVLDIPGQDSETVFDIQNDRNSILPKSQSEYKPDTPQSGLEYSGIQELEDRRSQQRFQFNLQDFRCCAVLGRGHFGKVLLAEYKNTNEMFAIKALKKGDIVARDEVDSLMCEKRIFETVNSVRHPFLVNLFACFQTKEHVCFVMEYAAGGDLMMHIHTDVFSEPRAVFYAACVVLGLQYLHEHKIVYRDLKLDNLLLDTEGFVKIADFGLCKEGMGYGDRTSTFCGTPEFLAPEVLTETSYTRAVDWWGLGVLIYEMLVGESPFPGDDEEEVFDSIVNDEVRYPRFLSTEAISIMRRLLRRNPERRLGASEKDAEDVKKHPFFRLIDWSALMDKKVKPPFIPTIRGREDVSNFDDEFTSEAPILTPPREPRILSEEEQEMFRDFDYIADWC
Chain of p38-gamma (P53778 whole entry): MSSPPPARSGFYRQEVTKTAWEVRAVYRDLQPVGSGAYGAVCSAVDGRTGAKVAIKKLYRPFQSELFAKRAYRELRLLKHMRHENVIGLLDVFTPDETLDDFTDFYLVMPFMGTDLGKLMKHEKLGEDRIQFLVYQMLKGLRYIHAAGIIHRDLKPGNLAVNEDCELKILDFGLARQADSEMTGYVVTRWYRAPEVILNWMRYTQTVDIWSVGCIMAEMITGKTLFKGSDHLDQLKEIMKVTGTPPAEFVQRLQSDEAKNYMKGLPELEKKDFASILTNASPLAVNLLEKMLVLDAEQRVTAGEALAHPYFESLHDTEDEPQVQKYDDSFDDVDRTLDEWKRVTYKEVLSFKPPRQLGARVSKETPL
Chain of CHEK1 (O14757 whole entry): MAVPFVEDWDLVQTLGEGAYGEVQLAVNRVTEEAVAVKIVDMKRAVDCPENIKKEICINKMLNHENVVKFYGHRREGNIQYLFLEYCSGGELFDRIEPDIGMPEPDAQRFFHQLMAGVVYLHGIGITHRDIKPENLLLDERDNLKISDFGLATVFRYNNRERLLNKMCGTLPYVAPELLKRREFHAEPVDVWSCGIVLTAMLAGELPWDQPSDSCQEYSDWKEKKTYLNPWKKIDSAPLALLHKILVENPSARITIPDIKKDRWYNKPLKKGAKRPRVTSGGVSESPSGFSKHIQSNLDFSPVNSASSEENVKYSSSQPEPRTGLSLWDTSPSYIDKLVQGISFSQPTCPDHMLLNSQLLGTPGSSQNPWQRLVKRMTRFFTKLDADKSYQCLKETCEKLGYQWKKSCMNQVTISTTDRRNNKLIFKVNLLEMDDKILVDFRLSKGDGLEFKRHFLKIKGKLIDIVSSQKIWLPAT

COc1cc(N2CCC(N3CCN(C)CC3)CC2)ccc1Nc1ncc2c(n1)N(C)c1sc(C)nc1C(=O)N2 [Compound 3, 6-((2-methoxy-4-(4-(4-methylpiperazin-1-yl)piperidin-1-yl)phenyl)amino)-2,4-dimethyl-4,9-dihydro-10H-pyrimido[5,4-b]thiazolo[5,4-e][1,4]diazepin-10-one] was tested, and the “S-Score (35)” value (403 non-mutant kinases) was 0.02, the “number of non-mutant kinases displaying <35% relative to control” value (403 non-mutant kinases; out of 403 non-mutant kinases) was “five” and the “number of other kinases engaged with greater than 65% inhibition” value (403 non-mutant kinases; panel of 403 kinases) was 4. For the same compound, the remaining binding at 10 µM [1] was 3.8%, the remaining binding at 10 µM (ADCK4) was 83% and the remaining binding at 10 µM (BMPR1B) was 88%. For the same compound, the remaining binding at 10 µM (BRAF) was 86%, the remaining binding at 10 µM (CAMK2D) was 82% and the remaining binding at 10 µM (CAMK2G) was 79%. The remaining binding at 10 µM (CDK2) was 81%, the remaining binding at 10 µM (CHEK1) was 79% and the remaining binding at 10 µM (CSF1R) was 36%. It also gave a remaining binding at 10 µM (DAPK2) of 60%, a remaining binding at 10 µM (EPHB2) of 53% and a remaining binding at 10 µM (EPHB6) of 45%. The remaining binding at 10 µM (ERBB3) was 100%, the remaining binding at 10 µM (FGFR2) was 80% and the “Percent Control” value (FLT3(ITD)) was 83%. The “Percent Control” value (FLT3(ITD, D835V)) was 100%, the remaining binding at 10 µM (INSR) was 83% and the remaining binding at 10 µM [2] was 85%. The remaining binding at 10 µM (MLK3) was 73%, the remaining binding at 10 µM (MST4) was 100% and the remaining binding at 10 µM (MYO3B) was 74%. For the same compound, the remaining binding at 10 µM (NLK) was 59%, the remaining binding at 10 µM (p38-gamma) was 67% and the remaining binding at 10 µM (PFTK1) was 90%. For the same compound, the remaining binding at 10 µM (PIP5K1A) was 100%, the remaining binding at 10 µM (PKMYT1) was 90% and the remaining binding at 10 µM (PKN2) was 100%. It also gave a remaining binding at 10 µM (PRKCD) of 86%, a remaining binding at 10 µM (RET(M918T)) of 87% and a remaining binding at 10 µM (TAOK3) of 100%. It also gave a remaining binding at 10 µM (YSK4) of 100%.
With COc1cc(N2CCC(N3CCN(C)CC3)CC2)ccc1Nc1ncc2c(n1)N(C)c1sc(C)nc1C(=O)N2C [Compound 5, 6-((2-methoxy-4-(4-(4-methylpiperazin-1-yl)piperidin-1-yl)phenyl)amino)-2,4,9-trimethyl-4,9-dihydro-10H-pyrimido[5,4-b]thiazolo[5,4-e][1,4]diazepin-10-one] the “S(1)” value (403 non-mutant kinases) was 0.005, the “S(10)” value (403 non-mutant kinases) was 0.012 and the “S-Score (35)” value (403 non-mutant kinases) was 0.042. The remaining binding at 10 µM [1] was 48%, the remaining binding at 10 µM (ADCK4) was 73% and the remaining binding at 10 µM (BMPR1B) was 94%. It also gave a remaining binding at 10 µM (BRAF) of 95%, a remaining binding at 10 µM (CAMK2D) of 92% and a remaining binding at 10 µM (CAMK2G) of 97%. It also gave a remaining binding at 10 µM (CDK2) of 100%, a remaining binding at 10 µM (CHEK1) of 59% and a remaining binding at 10 µM (CSF1R) of 80%. It also gave a remaining binding at 10 µM (DAPK2) of 83%, a remaining binding at 10 µM (EPHB2) of 99% and a remaining binding at 10 µM (EPHB6) of 100%. The remaining binding at 10 µM (ERBB3) was 100%, the remaining binding at 10 µM (FGFR2) was 100% and the “Percent Control” value (FLT3(ITD)) was 100%. The “Percent Control” value (FLT3(ITD, D835V)) was 100%, the remaining binding at 10 µM (INSR) was 40% and the remaining binding at 10 µM [2] was 100%. It also gave a remaining binding at 10 µM (MLK3) of 100%, a remaining binding at 10 µM (MST4) of 100% and a remaining binding at 10 µM (MYO3B) of 100%. For the same compound, the remaining binding at 10 µM (NLK) was 93%, the remaining binding at 10 µM (p38-gamma) was 95% and the remaining binding at 10 µM (PFTK1) was 100%. For the same compound, the remaining binding at 10 µM (PIP5K1A) was 100%, the remaining binding at 10 µM (PKMYT1) was 95% and the remaining binding at 10 µM (PKN2) was 100%. For the same compound, the remaining binding at 10 µM (PRKCD) was 94%, the remaining binding at 10 µM (RET(M918T)) was 100% and the remaining binding at 10 µM (TAOK3) was 77%. It also gave a remaining binding at 10 µM (YSK4) of 93%.

Reference: patent publication US12365696B2, “Small-molecule focal adhesion kinase (FAK) inhibitors” (DANA-FARBER CANCER INSTITUTE, INC., priority 2019, dated 2025)
